Measured values published in publication PMC8007387 (Clinical Pharmacokinetics, 2021).
Where two headings read alike, the source gives them in different places.

Legend:
QTcF interval = conditions: in vivo
clinical [1] = conditions: both, human, in vivo
clinical [2] = conditions: male, human, in vivo
[3] = in vivo; cited from earlier work
[4] = in vivo, cited from earlier work
[5] = male, human, in vivo
pregnane X receptor = conditions: cited from earlier work
CYP3A4 = conditions: cited from earlier work
CES-1, CatA and CYP3A = tested on: CES-1, CatA and CYP3A; set-up: species or system human
[6] = monkey, in vivo
cytochrome P450 (CYP) 3A = conditions: cited from earlier work
MATE1 = conditions: cited from earlier work
CYP2D6 = conditions: recombinant enzyme; cited from earlier work
OATP1B1 [7] = conditions: cited from earlier work
[8] = Sprague-Dawley, rat, in vivo, iv, 10 mg/kg
CYP3A = conditions: recombinant enzyme; cited from earlier work
OATP1B3 = conditions: cited from earlier work
[9] = human, plasma; cited from earlier work
OATP1B1 [10] = conditions: cited from earlier work; remark: listed apart in the source
MERS-CoV = conditions: rhesus monkey, in vivo; cited from earlier work
[11] = human, in vivo
[12] = tested on: aryl hydrocarbon receptor; conditions: cited from earlier work
carboxylesterase 1 = conditions: cited from earlier work
CYP2C8 = conditions: recombinant enzyme; cited from earlier work
in vivo = conditions: rhesus monkey, iv
[13] = both, human, in vivo
P-glycoprotein = conditions: cited from earlier work
[14] = human; cited from earlier work
cathepsin A = conditions: cited from earlier work

Compound: N#C[C@@]1(c2ccc3c(N)ncnn23)O[C@H](CO)[C@@H](O)[C@H]1O [GS-441524]
- QTcF interval prolongation (QTcF interval): do not cause QTcF interval prolongation
- AUC (clinical [1]; 100 mg): 2230 ng·h/mL
- Cmax (clinical [1]; 100 mg): 145 ng/mL
- Tmax (clinical [1]; 100 mg): 1.51 h
- half-life (clinical [1]; 100 mg, t1/2, median (Q1, Q3)): 27.4 h
- AUC(0-t) (clinical [1]; 200 mg): 2190 ng·h/mL
- Cmax (clinical [1]; 200 mg): 143 ng/mL
- Tmax (clinical [1]; 200 mg): 2 h
- CL renal (clinical [2]; estimated secretory clearance CLr,s): 31 mL/min
- Tmax (clinical [2]; iv): 3 h
- CL renal (clinical [2]; renal clearance CLr): 151 mL/min
- dose recovered in urine as this analyte [3]: 48.6%
- t1/2 ([4]; 150 mg): ~ 24.5 h
- dose dependence of PK ([4]; iv): linear pharmacokinetics
- accumulation in plasma [4]: approximately 1.9 fold
- steady state reached by day [4]: 4 days
- steady state reached on day [4]: 4 days
- secretory clearance as share of CLr [5]: 21 % of CLr

Compound: CCC(CC)COC(=O)[C@H](C)N[P@](=O)(OC[C@H]1O[C@@](C#N)(c2ccc3c(N)ncnn23)[C@H](O)[C@@H]1O)Oc1ccccc1 [RDV, 2-ethylbutyl N-{(S)-[2-C(4-aminopyrrolo[2,1-f][1,2,4]triazin-7-yl)-2-5-anhydro-d-altrononitril-6-O-yl]phenoxyphosphoryl}-L-alaninate]
- induction of enzymes or transporters via pregnane X receptor (pregnane X receptor): no potential for induction
- inhibition of CYP3A4 (CYP3A4): weak inhibitor
- extraction ratio (CES-1, CatA and CYP3A): 0.6–0.8
- upper bound of two-sided 90% CI of predicted mean ΔΔQTcF (QTcF interval; human): < 10 ms
- QTcF interval prolongation (QTcF interval): do not cause QTcF interval prolongation
- administered radioactivity recovered in feces [6]: 25.6%
- administered radioactivity recovered in urine [6]: 33.6%
- AUC (clinical [1]; 100 mg): 1590 ng·h/mL
- Cmax (clinical [1]; 100 mg): 2230 ng/mL
- Tmax (clinical [1]; 100 mg): 0.68 h
- clearance (clinical [1]; 100 mg, CLss, mean (%CV)): ~1080 mL/min
- half-life (clinical [1]; 100 mg, t1/2, median (Q1, Q3)): 0.96 h
- AUC(0-t) (clinical [1]; 200 mg): 2860 ng·h/mL
- Cmax (clinical [1]; 200 mg): 4380 ng/mL
- Tmax (clinical [1]; 200 mg): 0.67 h
- half-life (clinical [1]; 200 mg, t1/2, median (Q1, Q3)): 0.9 h
- AUC (clinical [1]; iv): 1590 ng·h/mL
- half-life (clinical [1]; median t1/2): ~1 h
- CYP-dependent hepatic metabolism, share of total hepatic clearance (cytochrome P450 (CYP) 3A): 10%
- contribution to total metabolism (cytochrome P450 (CYP) 3A): 10%
- clearance (clinical [2]): 1170 mL/min
- half-life (clinical [2]; iv, 150 mg): ~1 h
- CL renal (clinical [2]; renal clearance CLr): 129 mL/min
- dose recovered in urine as this analyte [3]: 10.3%
- inhibition of MATE1 (MATE1): weak inhibitor
- metabolism by CYP2D6 (CYP2D6): can be metabolized
- inhibition of OATP1B1 (OATP1B1 [7]): weak inhibitor
- administered radioactivity excreted in feces [8]: 27.8%
- administered radioactivity excreted in urine [8]: 63.0%
- time within which most of the radioactivity was excreted [8]: ≤ 48 h
- accumulation [4]: lack of accumulation
- metabolism by CYP3A (CYP3A): can be metabolized
- inhibition of OATP1B3 (OATP1B3): weak inhibitor
- protein binding (bound) [9]: 88–93.6%
- substrate for OATP1B1 (OATP1B1 [10]): substrate
- lung viral loads lower in each lung lobe (MERS-CoV): 2.5–4 logs
- lung viral loads versus vehicle-treated animals (MERS-CoV): lower when all lung lobes were combined
- prophylactic efficacy versus vehicle-treated animals (MERS-CoV): significant reduction in clinical scores, clinical signs of respiratory disease, and viral RNA levels
- graded ALT abnormalities ([11]; both): eight participants with Grade 1 and 1 subject with Grade 2 ALT abnormalities
- infusion-site phlebitis, participants ([11]; both): 40%
- serious AEs, Grade 3 or 4 AEs, deaths ([11]; both): no serious AEs, Grade 3 or 4 AEs, or deaths
- graded ALT abnormalities [11]: no graded alanine aminotransferase (ALT) abnormalities
- overall tolerability [11]: generally well tolerated
- transient Grade 1 AST abnormalities [11]: four of the nine participants with graded ALT abnormalities
- induction of enzymes or transporters via aryl hydrocarbon receptor [12]: no potential for induction
- blood-to-plasma ratio of [14C]-radioactivity [5]: 0.68
- mean total recovery of the radioactive dose [5]: > 92%
- radioactive dose recovered in feces [5]: ~18%
- radioactive dose recovered in urine [5]: approximately 74%
- contribution to total metabolism (carboxylesterase 1): 80%
- metabolism by CYP2C8 (CYP2C8): can be metabolized
- AUC(0-t) (in vivo): 1430 ng·h/mL
- Cmax (in vivo): 3350 ng/mL
- median time of occurrence of maximum observed plasma concentration [13]: ~ 0.7 h
- substrate for P-glycoprotein (P-glycoprotein): substrate
- mean whole blood/plasma concentration ratio [14]: 0.76
- contribution to total metabolism (cathepsin A): 10%
